This is an account of results in patent US20100256179A1, “COMBINATION THERAPY FOR PAIN IN PAINFUL DIABETIC NEUROPATHY” (UCB PHARMA GMBH, priority 2004, published 2010).

The test system of the experiment is formalin-induced flinching and licking response of the affected paw. The experiment is described as follows: rat formalin paw test (late phase). As to conditions: for decrease in number of flinches as compared with vehicle controls: non-significant. The experiment is classed as in vivo. The protocol: Rats were given an intraplantar injection of 5% formalin (50 μl) into the posterior left paw. This treatment induces a recognizable flinching and licking response of the affected paw in control animals. The number of flinches was counted for 15 minutes, beginning 20 minutes after injection of formalin. The time spent licking the affected paw was also recorded.
Male Rj: Wistar (Han) rats, 10 per group, weighing 100-130 g at the beginning of the experiments were studied per group. The test was performed blind.

[1] abbreviates: Example 3, morphine 2 mg/kg i.p.
[2] abbreviates: Example 3, morphine 4 mg/kg i.p.
Setting [3] is: Example 2, gabapentin 50 mg/kg i.p.
[4] abbreviates: Example 2, gabapentin 100 mg/kg i.p.
Where [5] appears, read: Example 2, gabapentin alone at 50 mg/kg.
Setting [6] is: Example 4, duloxetine 8 mg/kg i.p.
The mark [7] stands for this setting: Example 5, memantine 4 mg/kg i.p.
Where [8] appears, read: Example 5, memantine 8 mg/kg i.p.

For `CN1CC[C@]23c4c5ccc(O)c4O[C@H]2[C@@H](O)C=C[C@H]3[C@H]1C5` [Morphine], under setting [1], the “Licking time % change (a): compared with vehicle control” value (shortened to “Licking time % change”) is on record as −1% (a), the “Licking time (seconds) mean ± SEM” value worked out at 289.3 ± 30.7 s, the “No. of flinches % change (a): compared with vehicle control” value (“No. of flinches % change” for short) was −7% (a) and the “No. of flinches mean ± SEM” value was determined as 139.5 ± 25.3. Under setting [2], the “Licking time % change” value was −20% (a), the “Licking time (seconds) mean ± SEM” value turned out to be 234.9 ± 37.3 s, the “No. of flinches % change” value was −37% (a) and the “No. of flinches mean ± SEM” value is on record as 94.3 ± 21.1. Moreover, the “number of flinches and time spent licking as compared with vehicle controls” value (Example 3, morphine alone at 2 and 4 mg/kg, effects did not reach statistical significance) was “dose-dependently decreased”.
As for `NCC1(CC(=O)O)CCCCC1` [Gabapentin], under setting [3], the “Licking time % change” value is given as −28% (a), the “Licking time (seconds) mean ± SEM” value is 161.0 ± 27.3 s, the “No. of flinches % change” value was −24% (a) and the “No. of flinches mean ± SEM” value was determined as 97.4 ± 23.8. Moreover, under setting [4], the “Licking time % change” value is −60% (a), the “Licking time (seconds) mean ± SEM” value amounted to 90.0 ± 22.5 s, the “No. of flinches % change” value is on record as −31% (a) and the “No. of flinches mean ± SEM” value was found to be 88.1 ± 19.4. In addition, under setting [5], the “decrease in time spent licking” value came to 28% and the “decrease in number of flinches as compared with vehicle controls” value is recorded as 24%. Besides, for the setting “Example 2, gabapentin alone at 100 mg/kg”, the “decrease in number of flinches as compared with vehicle controls” value was 31%. For the same compound, the “decrease in time spent licking” value (Example 2, gabapentin alone at 100 mg/kg, p<0.05) is given as 60%.
As for `CNCC[C@H](Oc1cccc2ccccc12)c1cccs1` [Duloxetine], the “effects on number of flinches and time spent licking” value (Example 4, duloxetine 8 mg/kg alone) is “no clear effects”. For the same compound, under setting [6], the “Licking time % change” value was −26% (a), the “Licking time (seconds) mean ± SEM” value was 195.5 ± 45.0 s, the “No. of flinches % change” value was −1% (a) and the “No. of flinches mean ± SEM” value is given as 149.6 ± 27.3.
Regarding `CC12CC3CC(C)(C1)CC(N)(C3)C2` [Memantine], under setting [7], the “Licking time % change” value was “+25% (a)”, the “Licking time (seconds) mean ± SEM” value was determined as 219.9 ± 21.8 s, the “No. of flinches % change” value is reported as −3% (a) and the “No. of flinches mean ± SEM” value was found to be 161.4 ± 26.3. Also, under setting [8], the “Licking time % change” value is “+35% (a)”, the “Licking time (seconds) mean ± SEM” value worked out at 237.3 ± 18.9 s, the “No. of flinches % change” value is recorded as −20% (a) and the “No. of flinches mean ± SEM” value worked out at 132.3 ± 24.6. Where the note is “Example 5, memantine alone at 4 mg/kg, p=0.0537”, the “increase in time spent licking” value was determined as 25%. In addition, where the note is “Example 5, memantine alone at 8 mg/kg, p<0.05”, the “increase in time spent licking” value amounted to 35%. In addition, the “number of flinches as compared with vehicle controls” value (Example 5, memantine alone at 4 and 8 mg/kg) is reported as “did not clearly affect”.
